What was measured:
B16-F10 cells = experiment: PowerBlot screen of expression of over 950 proteins; format: cell-based, mouse; settings: 100 ng/ml, 16 hr
Experimental: A second series of experiments tested the activity of AVP 893 on the expression of over 950 proteins by Western blotting in vitro (in triplicate); methods detailed below. B16 tumor cells were chosen for this screen and a 16 hour duration of AVP 893 treatment was selected to optimize the number of proteins that might be modified by drug. […] B16-F10 cells were cultured for 16 hr in the presence or absence of 100 ng/ml AVP 893. Samples were harvested and lysates prepared according to instructions supplied by Becton-Dickinson. Samples were placed on dry ice and submitted to the same for expression analysis of 950 proteins. […] Although both proteins have entirely different functions in the cell, and have not been linked (apparently) in the scientific literature, there is a rational explanation for the changes noted in each protein, as described below.

nicastrin = experiment: Nicastrin expression/maturation by Western blotting; format: cell-based
Experimental: The culture medium was removed by vacuuming (for attached cells) or by low speed centrifugation (for suspension cells) for 5-7 minutes at room temperature. The cells were wasedh twith PBS, spun at 1200 rpm and the cell pellets were kept on ice. 300 μl/2.0×10^7 cells of ice cold lysis buffer was added with freshly added protease inhibitors. Cell pellets were gently resuspended and incubated on ice for at least 30 min, vortexed a few times during incubation. Cell lysate was spun at 14,000 rpm for 2-5 min at 4° C. The supernatant was transferred to a new microfuge tube and the pellet was discarded. An aliquot of sample was mixed with an equal volume of 2× sample buffer (InVitrogen), and stored at −80° C. Protein concentration was determined by using “BCA protein assay reagent kit” from Pierce.
Protein samples (in sample buffer) were boiled for 1-3 minutes and put on ice. Same amount of protein were loaded on the NuPage gel (InVitrogen). […]
To further examine the putative protein trafficking effects of AVP 893, other proteins in this pathway were tested in vitro in B16 and other cell lines. […] Other cell lines were tested for their expression of GS28 and nicastrin and found to respond similarly to drug, although quantitative differences were evident. […]

B16F10 cells = experiment: Density gradient centrifugation, intracellular protein distribution; format: cell-based; settings: B16 cells, 16 hours drug
Experimental: To test this possibility directly, cells were cultured with and without drug for 16-20 hours, harvested, lysed, and layered on top of a gradient of varying density iodixanol-containing fractions (2.5-30%). The gradients were centrifuged for 2 to 18 hours at 56K x g, collected, and tested for resident proteins via Western blot. Fractions were probed with antibodies specific for calnexin (ER-specific marker), γ-adaptin (golgi), and Rab5a (vesicles). […] FIGS. 34 and 35 also show the unfractionated levels of Rab6 and Rab1B, respectively, that were obtained prior to density gradient centrifugation. No difference in the expression of these 3 marker proteins was observed between the control and drug-treated cells.
B16F10 cells were seeded into 175 cm2 flasks one day prior to drug application. On the subsequent day, fresh media +/−drug was applied to the cultures. 16 hours later, the cells were washed with cold Dulbecco's PBS, then harvested in ice-cold homogenization buffer: 130 mM KCl, 25 mM NaCl, 1 mM EGTA, 25 mM Tris pH7.4, plus 15 ul protease inhibitor per 5 mL buffer. 1 mL of buffer was used per flask, and the cells were scrapped off into 14 mL round-bottom culture tubes and kept on ice. The harvested cells were then homogenized with a tissue homogenizer (Polytron PT10/35), transferred into 2 mL centrifuge tubes, and spun at 1,000 rpm for 8 min at 4° C. […]

[1] = system: PC12 pheochromocytoma cells; experiment: Norepinephrine release and dopamine re-uptake in PC12 cells; format: cell-based; settings: not shown
Source text: The proposed mechanism of the AVP compounds on intracellular protein transit also allows certain predictions as to other effects and non-effects that these compounds might share. For example, inhibition of vesicle fusion or budding between the ER and golgi should not affect exocytosis as would be expected of a post-golgi active compound such as Monensin. AVP 893 has minimal effects on the expression of proteins involved in exocytosis, particularly VAMP, SNAP23 (non-neuronal cells), and SNAP25 (neuronal cells).

O=C(Nc1ccc(-c2nc3cc(NC(=O)C4CCCCC4)ccc3[nH]2)cc1)C1CCCCC1 [AVP 893]
number of proteins consistently and significantly modified of over 950 (B16-F10 cells): 6
IC50 for mature nicastrin expression (nicastrin; 3T3 cells, overnight): 10 and 100 ng/ml
levels of mature nicastrin (nicastrin; 3T3 fibroblast cell line): virtually eliminated
distribution of Rab 1b and Rab 6 in gradient fractions (B16F10 cells): retained in the ER at the expense of the golgi compartment
release of norepinephrine, re-uptake of dopamine [1]: does not affect the release of norepinephrine or the re-uptake of dopamine
